Patent US10472334B2, “Small molecules for inhibiting male fertility” (The University of North Carolina at Chapel Hill, priority 2014, dated 2019)
Where two headings read alike, the source gives them in different places.

Tested on: human sperm motility
Assay: Computer-assisted sperm analysis (CASA) of human sperm motility
Type: cell-based
Description: In another embodiment, a computer-assisted sperm analysis (CASA) can be used as a live cell compound screen for determining the effect of compounds on human sperm motility. Additionally, to facilitate the IC50 evaluation of compounds using different ejaculates, reducing inter-assay variation due to differences in sperm quality in different semen samples, an index of relative motility inhibition (RMI) was developed.
This is calculated as: RMI=[% motility*VSL]; percentage of motile sperm (% motility) or the percentage of progressively motile sperm (% progressive motility, RPMI) multiplied by the straight-line velocity (VSL); the average velocity measured in a straight line from the beginning to the end of a track in μm/sec.
Normalized RMI can be calculated by dividing the RMI of each experimental condition by its respective DMSO control.
Computer-assisted sperm analysis (CASA) was used as a live cell compound screen for determining the effect of compounds on human sperm motility. Computer-assisted sperm analysis (CASA) was performed using the approach taught in Mitra et al., Biology of Reproduction, Vol. 82, p 491 (2010), to determine the parameters of the control versus compound-treated spermatozoa. The parameters measured are: average pathway velocity (VAP: the average velocity of the smoothed cell path in 1 m/sec), the straight-line velocity (VSL: the average velocity measured in a straight line from the beginning to the end of track in 1 m/sec), the curvilinear velocity (VCL: the average velocity measured over the actual point-to-point track of the cell in 1 m/sec), the lateral head amplitude (ALH: amplitude of lateral head displacement in 1 m), the beat cross-frequency (BCF: frequency of sperm head crossing the sperm average path in Hz), the straightness (STR: the average value of the ratio VSL/VAP in %), and the linearity (LIN: the average value of the ratio VSL/VCL in %). The sperm motility parameters are assessed in pre-warmed (37° C.) two- or four-chambered 20-mm Leja slides, loading 5 μL or 2 μL, respectively, of the samples in each chamber and immediately using CASA. This computerized measuring device included a phase-contrast microscope (Olympus CX41), a camera, a mini-therm stage warmer, an image digitizer, and a computer to store and analyze data. The software used for data analysis is the HTR Ceros 12.3 (Hamilton-Thorne Biosciences). A range of 13 to 20 fields are scanned from each chamber. Progressive cells had to have a minimum of 25 μm/sec VAP and 80% of STR.
To facilitate the IC50 evaluation of compounds using different ejaculates, reducing inter-assay variation due to differences in sperm quality in different semen samples, an index of relative motility inhibition (RMI) was developed. This is calculated as: RMI=[% motility*VSL]; percentage of motile sperm (% motility) or the percentage of progressively motile sperm (% progressive motility, RPMI) multiplied by the straight-line velocity (VSL); the average velocity measured in a straight line from the beginning to the end of a sperm track in μm/sec. Normalized RMI (RPMI) was calculated by dividing the RMI of each experimental condition by its respective DMSO control.
The analysis of sperm motility was carried out with computer-assisted sperm analysis (CASA) (Ceros version 12.3 software; Hamilton-Thorne), using the techniques taught in Mitra et al., Biology of Reproduction, Vol. 82, p 491 (2010).

`CCOC(=O)CSc1nc(=O)c(NCC(=O)OC)n[nH]1` [Compound B4, methyl N-{3-[(2-ethoxy-2-oxoethyl)sulfanyl]-5-oxo-2,5-dihydro-1,2,4-triazin-6-yl}glycinate] was tested, and the IC50 (Homo sapiens, Sperm, read-out: CASA) was 11.4 µM.

Molecule `COC(=O)NNc1nc(Nc2ccc(NC(=O)OC)c(O)c2)nc(SCC(C)=O)n1` [EP012] has an IC50 (Homo sapiens, Sperm, FIG. 10, RMI using % progressive motility, read-out: IC50 in terms of progressive motility) of ~3.4 µM.

B1: SEMG1: semenogelin protein that binds EPPIN and inhibits progressive motility of ejaculate spermatozoa (protein, UniProt P04279 24-462, looked up)
Semenogelin-1: QKGGSKGRLPSEFSQFPHGQKGQHYSGQKGKQQTESKGSFSIQYTYHVDANDHDQSRKSQQYDLNALHKTTKSQRHLGGSQQLLHNKQEGRDHDKSKGHFHRVVIHHKGGKAHRGTQNPSQDQGNSPSGKGISSQYSNTEERLWVHGLSKEQTSVSGAQKGRKQGGSQSSYVLQTEELVANKQQRETKNSHQNKGHYQNVVEVREEHSSKVQTSLCPAHQDKLQHGSKDIFSTQDELLVYNKNQHQTKNLNQDQQHGRKANKISYQSSSTEERRLHYGENGVQKDVSQSSIYSQTEEKAQGKSQKQITIPSQEQEHSQKANKISYQSSSTEERRLHYGENGVQKDVSQRSIYSQTEKLVAGKSQIQAPNPKQEPWHGENAKGESGQSTNREQDLLSHEQKGRHQHGSHGGLDIVIIEQEDDSDRHLAQHLNNDRNPLFT
B1 was tested, and the IC50 (FIGS. 3 and 4, read-out: IC50, CASA, RMI (relative motility)) was ~9 µM and the EC50 (calculated EC50 value, read-out: EC50 for inhibiting sperm motility) was 8.8 µM.
